Experimental findings from the Kinase Knowledgebase extract (Sharma et al. 2016) are described below.

A word on the IC50: it is the concentration that inhibits the measured activity by half. Lower therefore signals higher potency.

Some results are limits rather than exact numbers.

One assay addresses CDK2 (UniProt P24941). The assay is described as follows: Enzyme Assay.
Settings: not given
Molecule `CC(=O)c1nn(-c2ccc(C)cc2)c2c1C(C)(C)Cc1[nH]ncc1-2` displayed an IC50 of 0.087 µM. Still for that read-out and setting: as for `C=CCONC(=O)c1nn(-c2ccc(S(=O)(=O)NCCC)cc2)c2c1ccc1[nH]ncc12`, the figure is 0.2 µM.

A further assay deals with CDK2 (human) (UniProt P24941). The assay is described as follows: Cell-Based Assay. Particulars: a2780.
Turning to `CCCCNS(=O)(=O)c1ccc(-n2nc(C(=O)NC)c3c2-c2cn[nH]c2CC3)cc1`, the IC50 is 10.2 µM. Consider `CS(=O)(=O)c1ccc(-n2nc(C(N)=O)c3c2-c2cn[nH]c2CC3)cc1`, for which the IC50 was > 20 µM. On the same count and under the same terms, the same measure for `CC(=O)c1nn(-c2ccc(C)cc2)c2c1C(C)(C)Cc1[nH]ncc1-2`: 1.65 µM; for `NC(=O)c1nn(-c2ccc(-c3ncc[nH]3)cc2)c2c1CCc1[nH]ncc1-2`: > 20 µM; for `NC(=O)c1nn(-c2ccc(OC(F)(F)F)cc2)c2c1CCc1[nH]ncc1-2`: > 20 µM. The same measure, in the same setting: the same measure for `NC(=O)c1nn(Cc2ccccc2)c2c1ccc1[nH]ncc12`: 2.98 µM. On the same count and under the same terms, as for `COc1ccc(-n2nc(C(=O)O)c3ccc4[nH]ncc4c32)cc1`, the figure is > 20 µM; as for `NC(=O)c1nn(-c2ccc(Cl)cc2)c2c1CCc1[nH]ncc1-2`, > 20 µM; as for `CCCCNS(=O)(=O)c1ccc(-n2nc(C(=O)NC)c3ccc4[nH]ncc4c32)cc1`, 2.9 µM. Consider `CNS(=O)(=O)c1ccc(-n2nc(C(N)=O)c3c2-c2cn[nH]c2CC3)cc1`, for which the IC50 was > 20 µM. On the same count and under the same terms, the same measure for `NC(=O)c1nn(-c2ccc(-c3ncc[nH]3)cc2)c2c1ccc1[nH]ncc12`: > 20 µM. With `CNS(=O)(=O)c1ccc(-n2nc(C(N)=O)c3ccc4[nH]ncc4c32)cc1`, the IC50 was > 20 µM. Take `C=CCONC(=O)c1nn(-c2ccc(S(=O)(=O)NCCC)cc2)c2c1ccc1[nH]ncc12`: the IC50 worked out at 8.7 µM. Regarding `N#Cc1ccc(-n2nc(C(N)=O)c3c2-c2cn[nH]c2CC3)cc1`, the IC50 was > 20 µM.

As for `CC(=O)c1nn(-c2ccc(C)cc2)c2c1CCc1[nH]ncc1-2`, the IC50 is > 20 µM.

Regarding `CN1CCN(S(=O)(=O)c2ccc(-n3nc(C(N)=O)c4ccc5[nH]ncc5c43)cc2)CC1`, the IC50 was > 20 µM. The same measure, in the same setting: as for `NC(=O)c1nn(-c2ccc(C(F)(F)F)cc2)c2c1CCc1[nH]ncc1-2`, the figure is > 20 µM.
